In patent US20180251431A1 (VERTEX PHARMACEUTICALS INCORPORATED, priority 2016, published 2018):
Where two headings read alike, the source gives them in different places.

Columns and labels:
[1] = system: ALD patient fibroblasts; experiment: Reduction in C26:0 LPC in ALD patient fibroblasts in vitro; type: cell-based, human; conditions: Patient Fibroblast (CALD 1), half maximal reduction in C26:0 LPC, each number a separate measurement
Procedure: Lysophosphatidylcholine (LPC) VLCFA were generated from straight chain VLCFA (SC-VLCFA) and were used clinically for newborn screening (Vogel et al., Mol. Genet. Metab. (2015) 114(4):599-603). In vitro efficacy studies were performed by measuring LPC VLCFA level (measured as LPC synthesis) in various cell lines, specifically in 1) human HEK cells, 2) patient derived cells, and 3) human microglia, which are disease relevant CNS cells. Compound 87's dose response relationships and IC50 values were measured in HEK cells, primary patient fibroblasts, immortalized patient lymphocytes, and a human microglial cell line. […]
Primary patient fibroblasts were obtained from Coriell Institute for Medical Research. […] The plate was sealed with a plate tape and put at −80° C. for further VLCFA extraction and VLCFA quantitation on LC-MS, as described below.
(§1) VLCFA Extraction and Quantitation on LCMS:
Treated cells were transferred to a polypropylene v-bottom plate and then centrifuged at 1690×g for 10 minutes. […] The plates were then sealed with pierceable capmats (Micronic MP53017) and stored at −20° C. until further analyzed using UPHLC/Mass Spectrometry Readout, as described above in example 2.1, which measured the integration of ^13C into lysophosphatidylcholine (LPC) indicated fatty acid elongation. […]

[2] = Blood exposure (AUC) in the 28-day oral dosing study in mice; type: in vivo; conditions: ABCD1 knockout (KO), mouse, whole blood (dried blood spots), read-out: Blood area under the concentration time-curve (AUC)
[3] = system: ALD patient B-lymphocytes; experiment: Reduction in C26:0 LPC in ALD patient B-lymphocytes in vitro; type: cell-based; conditions: Homo sapiens, Lymphocyte, half maximal reduction in C26:0 LPC
Procedure: Lysophosphatidylcholine (LPC) VLCFA were generated from straight chain VLCFA (SC-VLCFA) and were used clinically for newborn screening (Vogel et al., Mol. Genet. Metab. (2015) 114(4):599-603). In vitro efficacy studies were performed by measuring LPC VLCFA level (measured as LPC synthesis) in various cell lines, specifically in 1) human HEK cells, 2) patient derived cells, and 3) human microglia, which are disease relevant CNS cells. Compound 87's dose response relationships and IC50 values were measured in HEK cells, primary patient fibroblasts, immortalized patient lymphocytes, and a human microglial cell line. To measure LPC VLCFA synthesis, the foregoing cells were grown in the presence of ^13C labeled acetate (13C Labeled sodium acetate; Sigma Aldrich #282014) and Compound 87 (prepared in DMSO) for about 48 hours. Primary patient fibroblasts and immortalized primary patient lymphocytes were acquired from the Coriell Cell Repository at the Coriell Institute for Medical Research.
Immortalized primary patient lymphocytes cell lines (cell lines GM13496, GM13497, and GM04674) were obtained from the Coriell Cell Repository at the Coriell Institute for Medical Research. Lymphocytes were cultured and plated at a desired cell density, such as 1×10^5 cells/well. […] The plate was sealed with a plate tape and put at −80° C. for further VLCFA extraction and VLCFA quantitation on LC-MS, as described below.
as §1
Treated cells were transferred to a polypropylene v-bottom plate and then centrifuged at 1690×g for 10 minutes. […] The plates were then sealed with pierceable capmats (Micronic MP53017) and stored at −20° C. until further analyzed using UPHLC/Mass Spectrometry Readout, as described above in example 2.1, which measured the integration of ^13C into lysophosphatidylcholine (LPC) indicated fatty acid elongation. Specifically, C16:0, C18:0, C20:0, C22:0, C24:0, and C26:0 LPC levels were measured via mass spectroscopy as described above and IC50 values indicated half maximal reduction in C26:0 LPC levels.

**Q.** For `O=C(Nc1ccn(-c2ccnc(F)c2)n1)C1(c2ccccc2F)CC1` [Compound 87, 1-(2-fluorophenyl)-N-[1-(2-fluoro-4-pyridyl)pyrazol-3-yl]cyclopropanecarboxamide], which IC50 ([1]; Homo sapiens, Fibroblast) is on record?
**A.** Its IC50 is 0.017 µM.

**Q.** And the IC50 [1]?
**A.** Its IC50 is 0.023 µM.

**Q.** What about the AUC ([2]; 4 mg/kg PO QD) of the same molecule?
**A.** Its AUC is 1950 ng·h/mL.

**Q.** What about the AUC ([2]; 8 mg/kg PO QD) of the same molecule?
**A.** Its AUC is 3490 ng·h/mL.

**Q.** What about the IC50 ([3]; Patient Lymphocyte (CALD)) of the same molecule?
**A.** The IC50 was 0.015 µM.

**Q.** What about the IC50 ([3]; Patient Lymphocyte (Het 1)) of the same molecule?
**A.** The IC50 was 0.005 µM.

**Q.** What about the IC50 ([3]; Patient Lymphocyte (Het 2)) of the same molecule?
**A.** Its IC50 is 0.009 µM.
